Results published in the NIST ThermoML archive (doi:10.1016/j.jct.2017.07.016).
Numbers after ± are expanded uncertainties.

Experiment: xn = mol fraction of the nth substance listed
Settings: 96.7 kPa, Liquid; for mass density: Vibrating tube method; for viscosity: Capillary tube (Ostwald / Ubbelohde) method

CCCCCCn1cc[n+](C)c1.[Cl-] [1-hexyl-3-methylimidazolium chloride] + C[S+](C)[O-]
Settings	mass density [kg/m3]	viscosity [mPa·s]
328.15 K, x1 = 0.141	1057.48 ± 2.1	–
328.15 K, x1 = 0.278	1049.95 ± 2.1	–
328.15 K, x1 = 0.366	1045.35 ± 2.1	–
328.15 K, x1 = 0.472	1040.31 ± 2.1	–
328.15 K, x1 = 0.606	1034.41 ± 2.1	–
328.15 K, x1 = 0.773	1028.15 ± 2.2	–
328.15 K, x1 = 0.878	1025.02 ± 2.2	–
328.15 K, x1 = 1	1021.92 ± 2.2	–
333.15 K, x1 = 0.141	1053.31 ± 2.1	3.154 ± 0.48
333.15 K, x1 = 0.278	1046.23 ± 2.1	8.18 ± 1.2
333.15 K, x1 = 0.366	1041.84 ± 2.1	15.34 ± 2.4
333.15 K, x1 = 0.472	1036.99 ± 2.1	30.3 ± 4.6
333.15 K, x1 = 0.606	1031.26 ± 2.1	60.05 ± 9.1
333.15 K, x1 = 0.773	1025.19 ± 2.1	114.9 ± 17
333.15 K, x1 = 0.878	1022.16 ± 2.2	227.29 ± 35
333.15 K, x1 = 1	1019.13 ± 2.2	453.59 ± 70
338.15 K, x1 = 0.141	1049.14 ± 2.1	2.85 ± 0.44
338.15 K, x1 = 0.278	1042.51 ± 2.1	7.175 ± 1.1
338.15 K, x1 = 0.366	1038.35 ± 2.1	13.14 ± 2
338.15 K, x1 = 0.472	1033.67 ± 2.1	25.52 ± 3.9
338.15 K, x1 = 0.606	1028.12 ± 2.1	48.07 ± 7.3
338.15 K, x1 = 0.773	1022.24 ± 2.1	89.02 ± 14
338.15 K, x1 = 0.878	1019.29 ± 2.2	169.96 ± 26
338.15 K, x1 = 1	1016.38 ± 2.2	327.52 ± 50
343.15 K, x1 = 0.141	1045.01 ± 2.1	2.594 ± 0.4
343.15 K, x1 = 0.278	1038.81 ± 2.1	6.291 ± 0.96
343.15 K, x1 = 0.366	1034.87 ± 2.1	11.28 ± 1.7
343.15 K, x1 = 0.472	1030.39 ± 2.1	20.88 ± 3.2
343.15 K, x1 = 0.606	1025 ± 2.1	39.06 ± 5.9
343.15 K, x1 = 0.773	1019.29 ± 2.1	70.28 ± 11
343.15 K, x1 = 0.878	1016.44 ± 2.1	129.41 ± 20
343.15 K, x1 = 1	1013.65 ± 2.2	243.04 ± 37
348.15 K, x1 = 0.141	1040.88 ± 2.1	2.378 ± 0.36
348.15 K, x1 = 0.278	1035.11 ± 2.1	5.597 ± 0.85
348.15 K, x1 = 0.366	1031.39 ± 2.1	9.738 ± 1.5
348.15 K, x1 = 0.472	1027.11 ± 2.1	17.65 ± 2.7
348.15 K, x1 = 0.606	1021.88 ± 2.1	32.05 ± 4.8
348.15 K, x1 = 0.773	1016.35 ± 2.1	56.52 ± 8.5
348.15 K, x1 = 0.878	1013.59 ± 2.1	100.3 ± 15
348.15 K, x1 = 1	1010.91 ± 2.2	183.45 ± 28
353.15 K, x1 = 0.141	1036.68 ± 2.1	2.184 ± 0.33
353.15 K, x1 = 0.278	1031.43 ± 2.1	4.998 ± 0.76
353.15 K, x1 = 0.366	1027.93 ± 2.1	8.538 ± 1.3
353.15 K, x1 = 0.472	1023.84 ± 2.1	15.07 ± 2.3
353.15 K, x1 = 0.606	1018.78 ± 2.1	26.7 ± 4
353.15 K, x1 = 0.773	1013.43 ± 2.1	45.71 ± 6.9
353.15 K, x1 = 0.878	1010.75 ± 2.1	81.75 ± 12
353.15 K, x1 = 1	1008.18 ± 2.2	140.06 ± 21
